The record followed here is ChEMBL document CHEMBL1909046, “DrugMatrix in vitro pharmacology data”.

Test [1] can be described thus: DRUGMATRIX: Nicotinic Acetylcholine radioligand binding (ligand: [125I] Epibatidine). It counts as cell membranes, Membrane. The note with it: imr-32; Not Active = under 50% inhibition at 10 µM.
Test [2] has as its target T1, Alpha-1B adrenergic receptor (Rattus norvegicus, UniProt P15823).
T1 sequence (P15823 whole entry): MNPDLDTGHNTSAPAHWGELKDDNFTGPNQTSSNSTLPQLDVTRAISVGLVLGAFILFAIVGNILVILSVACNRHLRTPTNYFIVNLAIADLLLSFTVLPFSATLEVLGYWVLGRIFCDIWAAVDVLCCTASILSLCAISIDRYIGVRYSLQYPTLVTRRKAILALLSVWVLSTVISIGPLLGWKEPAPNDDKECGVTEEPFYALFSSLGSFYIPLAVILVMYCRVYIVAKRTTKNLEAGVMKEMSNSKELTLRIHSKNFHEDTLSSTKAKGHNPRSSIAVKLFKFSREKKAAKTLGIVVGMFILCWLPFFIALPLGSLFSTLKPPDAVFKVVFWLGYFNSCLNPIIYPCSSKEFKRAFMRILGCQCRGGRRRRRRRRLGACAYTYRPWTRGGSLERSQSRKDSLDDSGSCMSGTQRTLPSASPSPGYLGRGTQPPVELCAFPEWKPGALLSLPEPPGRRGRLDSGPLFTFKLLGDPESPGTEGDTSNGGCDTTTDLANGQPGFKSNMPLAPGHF
The experiment in a line: DRUGMATRIX: Alpha-1B adrenergic receptor radioligand binding (ligand: prazosin). The class given is cell membranes, Wistar, Liver, Membrane. The note with it: Not Active = under 50% inhibition at 10 µM.

The nature of test [3]: DRUGMATRIX: Calcium Channel Type L, Dihydropyridine radioligand binding (ligand: [3H] Nitrendipine). The class given is cell membranes, Rattus norvegicus, Wistar, Cerebral cortex, Membrane. Conditions: Not Active = under 50% inhibition at 10 µM.
Test [4] in a line: DRUGMATRIX: Serotonin (5-Hydroxytryptamine) 5-HT3 radioligand binding (ligand: [3H] GR-65630). The note with it: hek293; Not Active = under 50% inhibition at 10 µM. It counts as cell membranes, Membrane.
In test [5] the target is Epidermal growth factor receptor (Homo sapiens, UniProt P00533). The experiment in a line: DRUGMATRIX: Protein Tyrosine Kinase, EGF Receptor enzyme inhibition (substrate: Poly(Glu:Tyr)). The class given is cell-based, Insect cells. The note with it: insect cells; Not Active = under 50% inhibition at 10 µM.
The next test addresses T2, Endothelin-1 receptor (Homo sapiens, UniProt P25101).
T2 sequence (P25101 whole entry): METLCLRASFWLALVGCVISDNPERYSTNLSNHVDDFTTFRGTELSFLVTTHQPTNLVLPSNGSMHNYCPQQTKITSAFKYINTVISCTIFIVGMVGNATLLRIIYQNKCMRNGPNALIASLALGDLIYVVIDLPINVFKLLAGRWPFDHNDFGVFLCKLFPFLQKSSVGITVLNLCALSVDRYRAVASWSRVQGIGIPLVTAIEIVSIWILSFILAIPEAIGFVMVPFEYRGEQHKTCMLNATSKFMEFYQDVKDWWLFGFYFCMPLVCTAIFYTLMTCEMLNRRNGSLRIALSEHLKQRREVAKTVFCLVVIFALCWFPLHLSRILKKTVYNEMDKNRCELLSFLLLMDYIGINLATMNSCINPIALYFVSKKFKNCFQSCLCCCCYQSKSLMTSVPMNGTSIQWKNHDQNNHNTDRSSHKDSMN
The class given is cell membranes, Membrane. Conditions: cho-k1.

In test [6] the target is T3, Nitric oxide synthase, inducible (Mus musculus, UniProt P29477).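 Also: inhibition of iNOS enzyme activity measured with L-arginine as substrate; in other assays of this panel Not Active means under 50% inhibition at 10 µM.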
T3 sequence (P29477 whole entry): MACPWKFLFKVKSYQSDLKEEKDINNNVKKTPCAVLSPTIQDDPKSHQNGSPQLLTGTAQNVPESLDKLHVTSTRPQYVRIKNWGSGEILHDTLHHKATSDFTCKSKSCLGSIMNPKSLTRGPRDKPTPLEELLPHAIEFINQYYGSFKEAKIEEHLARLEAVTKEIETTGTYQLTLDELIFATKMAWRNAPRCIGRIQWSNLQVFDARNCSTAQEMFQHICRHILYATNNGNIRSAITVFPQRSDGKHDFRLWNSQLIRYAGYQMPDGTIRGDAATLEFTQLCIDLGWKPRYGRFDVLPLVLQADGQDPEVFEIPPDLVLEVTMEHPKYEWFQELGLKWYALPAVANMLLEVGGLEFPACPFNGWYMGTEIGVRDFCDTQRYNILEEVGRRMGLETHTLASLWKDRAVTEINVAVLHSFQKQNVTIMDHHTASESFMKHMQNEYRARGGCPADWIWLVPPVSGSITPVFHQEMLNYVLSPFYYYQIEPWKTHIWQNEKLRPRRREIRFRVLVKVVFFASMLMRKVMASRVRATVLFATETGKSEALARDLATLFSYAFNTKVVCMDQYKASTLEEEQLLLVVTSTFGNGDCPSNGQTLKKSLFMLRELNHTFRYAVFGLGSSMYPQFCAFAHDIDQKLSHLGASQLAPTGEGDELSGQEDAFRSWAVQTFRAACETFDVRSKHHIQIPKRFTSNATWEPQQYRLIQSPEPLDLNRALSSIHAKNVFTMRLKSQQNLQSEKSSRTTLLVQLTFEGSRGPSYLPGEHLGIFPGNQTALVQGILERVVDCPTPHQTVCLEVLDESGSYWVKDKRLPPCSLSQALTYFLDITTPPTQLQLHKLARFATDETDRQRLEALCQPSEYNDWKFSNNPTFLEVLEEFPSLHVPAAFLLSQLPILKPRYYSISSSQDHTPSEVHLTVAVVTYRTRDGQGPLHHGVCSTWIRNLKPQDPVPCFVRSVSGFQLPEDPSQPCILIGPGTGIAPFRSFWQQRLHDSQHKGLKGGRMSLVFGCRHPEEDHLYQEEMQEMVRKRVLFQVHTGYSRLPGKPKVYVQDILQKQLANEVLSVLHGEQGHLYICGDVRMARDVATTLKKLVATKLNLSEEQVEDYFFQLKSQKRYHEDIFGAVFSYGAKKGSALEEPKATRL
More on the design: species or system Escherichia coli.

The target of test [7] is T4, C-C chemokine receptor type 4 (Homo sapiens, UniProt P51679). Also: in other assays of this panel Not Active means under 50% inhibition at 10 µM.
T4 sequence (P51679 whole entry): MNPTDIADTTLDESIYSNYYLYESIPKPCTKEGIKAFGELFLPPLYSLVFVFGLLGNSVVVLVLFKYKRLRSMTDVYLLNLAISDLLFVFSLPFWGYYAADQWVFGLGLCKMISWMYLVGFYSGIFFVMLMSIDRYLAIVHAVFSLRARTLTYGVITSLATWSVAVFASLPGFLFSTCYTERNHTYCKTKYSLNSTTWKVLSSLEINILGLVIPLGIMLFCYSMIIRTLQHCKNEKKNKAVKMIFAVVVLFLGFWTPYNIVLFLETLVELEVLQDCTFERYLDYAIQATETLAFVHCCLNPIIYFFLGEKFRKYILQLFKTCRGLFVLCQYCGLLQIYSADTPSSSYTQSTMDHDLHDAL
It counts as cell membranes, Membrane. The note with it: chem-1.

Test [8] is described as follows: DRUGMATRIX: Phosphodiesterase PDE4 enzyme inhibition (substrate: [3H]cAMP + cAMP). Conditions: u-937; Not Active = under 50% inhibition at 10 µM.

For orientation: pIC50 means −log10 of the IC50, conventionally taken in molar units. The term pKi denotes −log10 of the Ki, conventionally taken in molar units.

pIC50, pKi: −log10 of the molar value.

Epidermal growth factor receptor, sequence (P00533 whole entry): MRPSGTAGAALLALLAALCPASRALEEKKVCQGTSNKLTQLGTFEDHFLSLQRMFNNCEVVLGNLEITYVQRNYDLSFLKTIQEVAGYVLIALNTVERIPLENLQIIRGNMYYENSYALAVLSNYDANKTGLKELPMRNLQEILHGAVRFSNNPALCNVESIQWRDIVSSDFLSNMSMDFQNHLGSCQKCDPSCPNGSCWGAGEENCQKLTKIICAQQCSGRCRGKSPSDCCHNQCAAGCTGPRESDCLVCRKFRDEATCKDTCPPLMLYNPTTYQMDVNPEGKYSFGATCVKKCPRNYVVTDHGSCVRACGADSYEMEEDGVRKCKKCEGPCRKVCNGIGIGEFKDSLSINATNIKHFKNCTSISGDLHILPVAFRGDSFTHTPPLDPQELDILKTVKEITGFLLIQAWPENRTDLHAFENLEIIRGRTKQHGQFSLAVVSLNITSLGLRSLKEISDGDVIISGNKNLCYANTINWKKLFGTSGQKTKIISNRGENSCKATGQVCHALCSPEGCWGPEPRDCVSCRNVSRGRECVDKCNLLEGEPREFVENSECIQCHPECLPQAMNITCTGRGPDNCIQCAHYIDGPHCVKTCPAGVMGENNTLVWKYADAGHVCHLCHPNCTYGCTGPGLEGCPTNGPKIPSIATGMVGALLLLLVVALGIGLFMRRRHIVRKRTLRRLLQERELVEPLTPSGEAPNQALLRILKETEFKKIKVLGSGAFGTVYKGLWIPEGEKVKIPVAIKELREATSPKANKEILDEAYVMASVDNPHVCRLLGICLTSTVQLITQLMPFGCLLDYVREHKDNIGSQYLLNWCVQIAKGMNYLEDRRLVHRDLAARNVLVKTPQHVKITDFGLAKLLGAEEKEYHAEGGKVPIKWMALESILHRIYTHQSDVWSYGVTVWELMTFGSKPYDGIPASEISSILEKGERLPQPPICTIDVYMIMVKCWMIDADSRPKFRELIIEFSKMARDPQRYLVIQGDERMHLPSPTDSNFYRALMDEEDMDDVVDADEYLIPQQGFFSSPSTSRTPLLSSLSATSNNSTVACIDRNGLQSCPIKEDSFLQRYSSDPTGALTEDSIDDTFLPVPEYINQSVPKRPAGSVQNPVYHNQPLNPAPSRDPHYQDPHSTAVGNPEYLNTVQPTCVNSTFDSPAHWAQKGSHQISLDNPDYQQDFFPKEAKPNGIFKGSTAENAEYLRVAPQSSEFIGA

With `CC(=O)[C@H]1CC[C@H]2[C@@H]3CCC4=CC(=O)CC[C@]4(C)[C@H]3CC[C@]12C` [PROGESTERONE], the IC50 result (in test [1]; in [2]; in test [3]; in [4]; in [5]; at Endothelin-1 receptor) was “Not Active” in each case. Moreover, the IC50 entry in test [6], in test [7] and in test [8] was “Not Active” throughout. Also, the Ki entry in test [1], in [3], in test [4] and in test [8] was “Not Active” each time.
Regarding `NC(=O)c1ncn([C@@H]2O[C@H](CO)[C@@H](O)[C@H]2O)n1` [RIBAVIRIN], the IC50 result (in [1]; in test [2]; in [3]; in test [4]; in [5]; at Endothelin-1 receptor) was “Not Active” each time. The IC50 entry in test [6], in test [7] and in test [8] was “Not Active” each time. Also, the Ki entry in [1], in [3], in [4] and in test [8] was “Not Active” each time.
For `O=[N+]([O-])c1cc([As](=O)(O)O)ccc1O` [ROXARSONE], the IC50 entry (in test [1]; in test [2]; in test [3]; in [4]; in test [5]; against Endothelin-1 receptor) was “Not Active” throughout. Also, the IC50 entry in test [6], in test [7] and in test [8] was “Not Active” in each case. Besides, the Ki result (in [1]; in test [2]; in test [3]; in test [4]; in test [5]; on Endothelin-1 receptor) was “Not Active” in each case. Besides, the Ki result in test [6], in test [7] and in test [8] was “Not Active” in each case.
As to `CC[C@H]1OC(=O)[C@H](C)[C@@H](O[C@H]2C[C@@](C)(OC)[C@@H](O)[C@H](C)O2)[C@H](C)[C@@H](O[C@@H]2O[C@H](C)C[C@H](N(C)C)[C@H]2O)[C@](C)(O)C[C@@H](C)/C(=N\OCOCCOC)[C@H](C)[C@@H](O)[C@]1(C)O` [ROXITHROMYCIN], the IC50 result (in [1]; in test [3]; in test [4]; in [5]; against Endothelin-1 receptor; in [6]) was “Not Active” each time. Moreover, the IC50 result in test [7] and in [8] was “Not Active” throughout. In addition, the Ki result in [1], in test [3], in test [4] and in test [8] was “Not Active” throughout. Besides, in [2] (read-out: IC50), the pIC50 is 6.00. In addition, the pKi in [2] (read-out: Ki) was 6.26.
With `NC(=O)c1ccccc1O` [SALICYLAMIDE], the IC50 entry (in test [1]; in test [2]; in test [3]; in test [4]; in test [5]; against Endothelin-1 receptor) was “Not Active” throughout. In addition, the IC50 entry in test [6], in test [7] and in test [8] was “Not Active” throughout. Moreover, the Ki entry in [1], in [3], in [4] and in [8] was “Not Active” each time.
For `Cc1ncc([N+](=O)[O-])n1CC(C)O` (configuration not stated) [SECNIDAZOLE], the IC50 result (in test [1]; in test [2]; in test [3]; in test [4]; in [5]; against Endothelin-1 receptor) was “Not Active” each time. Also, the IC50 result in test [6], in test [7] and in [8] was “Not Active” throughout. Moreover, the Ki result in [1], in test [3], in test [4] and in test [8] was “Not Active” each time.
For `CN[C@@H]1[C@@H](O)[C@@H](O[C@@H]2[C@@H](O)[C@H](O[C@H]3OC(CN)=CC[C@H]3N)[C@@H](N)C[C@H]2N)OC[C@]1(C)O` [SISOMICIN], the IC50 result (in [1]; in test [2]; in test [3]; in test [4]; in test [5]; against Endothelin-1 receptor) was “Not Active” in each case. In addition, the IC50 result in test [6], in test [7] and in test [8] was “Not Active” each time. Besides, the Ki entry in [1], in [3], in test [4] and in [8] was “Not Active” each time.
